Test results as given in paper PMC5725665, “Discovery of a Highly Selective Cell‐Active Inhibitor of the Histone Lysine Demethylases KDM2/7” (Angewandte Chemie (International Ed. in English), 2017).

Legend:
JMJD1A (KDM3A) = molecular target: T1, JMJD1A (KDM3A) (Homo sapiens, UniProt Q9Y4C1); test: biochemical; design: AlphaScreen histone demethylase activity assay
T1 sequence (Q9Y4C1 1-1321): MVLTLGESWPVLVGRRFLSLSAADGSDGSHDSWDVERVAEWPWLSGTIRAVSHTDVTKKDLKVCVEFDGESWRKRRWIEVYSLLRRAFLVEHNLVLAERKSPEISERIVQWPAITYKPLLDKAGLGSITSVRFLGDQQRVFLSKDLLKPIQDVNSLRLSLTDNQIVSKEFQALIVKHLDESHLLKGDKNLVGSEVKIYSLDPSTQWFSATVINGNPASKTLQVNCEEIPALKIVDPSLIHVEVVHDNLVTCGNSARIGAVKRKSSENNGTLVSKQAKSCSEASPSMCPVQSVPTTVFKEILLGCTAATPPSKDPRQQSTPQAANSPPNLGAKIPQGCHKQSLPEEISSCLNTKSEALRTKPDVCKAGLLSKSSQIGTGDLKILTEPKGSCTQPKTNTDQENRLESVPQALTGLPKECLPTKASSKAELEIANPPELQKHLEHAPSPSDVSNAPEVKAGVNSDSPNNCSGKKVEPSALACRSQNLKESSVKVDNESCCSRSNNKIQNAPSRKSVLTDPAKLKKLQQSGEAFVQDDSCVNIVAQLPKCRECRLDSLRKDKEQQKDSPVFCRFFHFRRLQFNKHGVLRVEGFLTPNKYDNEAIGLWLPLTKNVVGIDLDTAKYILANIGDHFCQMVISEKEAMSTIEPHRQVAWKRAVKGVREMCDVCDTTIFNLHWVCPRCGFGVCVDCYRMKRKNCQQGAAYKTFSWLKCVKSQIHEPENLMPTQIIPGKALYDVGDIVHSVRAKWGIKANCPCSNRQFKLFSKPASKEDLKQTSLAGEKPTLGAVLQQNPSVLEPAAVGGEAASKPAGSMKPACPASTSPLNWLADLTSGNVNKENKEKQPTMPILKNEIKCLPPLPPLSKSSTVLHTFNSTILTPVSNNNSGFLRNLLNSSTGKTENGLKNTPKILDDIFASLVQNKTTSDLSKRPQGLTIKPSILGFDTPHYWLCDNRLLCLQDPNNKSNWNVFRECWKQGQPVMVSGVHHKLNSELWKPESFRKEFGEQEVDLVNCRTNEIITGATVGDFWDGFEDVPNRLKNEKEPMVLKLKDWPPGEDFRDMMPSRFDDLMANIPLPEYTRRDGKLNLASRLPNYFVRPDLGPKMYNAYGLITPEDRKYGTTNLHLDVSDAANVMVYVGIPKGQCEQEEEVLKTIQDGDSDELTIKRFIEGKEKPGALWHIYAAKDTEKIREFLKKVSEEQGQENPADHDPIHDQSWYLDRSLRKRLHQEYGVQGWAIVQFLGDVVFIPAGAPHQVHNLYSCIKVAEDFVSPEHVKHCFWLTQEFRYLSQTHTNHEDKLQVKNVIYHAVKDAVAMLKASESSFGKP

JARID1B (KDM5B) = JARID1B (KDM5B) (Homo sapiens, UniProt Q9UGL1); test: biochemical; design: AlphaScreen histone demethylase activity assay; conditions: read-out: KDM5B pIC50 (converted)
JARID1B (KDM5B), sequence (Q9UGL1 whole entry): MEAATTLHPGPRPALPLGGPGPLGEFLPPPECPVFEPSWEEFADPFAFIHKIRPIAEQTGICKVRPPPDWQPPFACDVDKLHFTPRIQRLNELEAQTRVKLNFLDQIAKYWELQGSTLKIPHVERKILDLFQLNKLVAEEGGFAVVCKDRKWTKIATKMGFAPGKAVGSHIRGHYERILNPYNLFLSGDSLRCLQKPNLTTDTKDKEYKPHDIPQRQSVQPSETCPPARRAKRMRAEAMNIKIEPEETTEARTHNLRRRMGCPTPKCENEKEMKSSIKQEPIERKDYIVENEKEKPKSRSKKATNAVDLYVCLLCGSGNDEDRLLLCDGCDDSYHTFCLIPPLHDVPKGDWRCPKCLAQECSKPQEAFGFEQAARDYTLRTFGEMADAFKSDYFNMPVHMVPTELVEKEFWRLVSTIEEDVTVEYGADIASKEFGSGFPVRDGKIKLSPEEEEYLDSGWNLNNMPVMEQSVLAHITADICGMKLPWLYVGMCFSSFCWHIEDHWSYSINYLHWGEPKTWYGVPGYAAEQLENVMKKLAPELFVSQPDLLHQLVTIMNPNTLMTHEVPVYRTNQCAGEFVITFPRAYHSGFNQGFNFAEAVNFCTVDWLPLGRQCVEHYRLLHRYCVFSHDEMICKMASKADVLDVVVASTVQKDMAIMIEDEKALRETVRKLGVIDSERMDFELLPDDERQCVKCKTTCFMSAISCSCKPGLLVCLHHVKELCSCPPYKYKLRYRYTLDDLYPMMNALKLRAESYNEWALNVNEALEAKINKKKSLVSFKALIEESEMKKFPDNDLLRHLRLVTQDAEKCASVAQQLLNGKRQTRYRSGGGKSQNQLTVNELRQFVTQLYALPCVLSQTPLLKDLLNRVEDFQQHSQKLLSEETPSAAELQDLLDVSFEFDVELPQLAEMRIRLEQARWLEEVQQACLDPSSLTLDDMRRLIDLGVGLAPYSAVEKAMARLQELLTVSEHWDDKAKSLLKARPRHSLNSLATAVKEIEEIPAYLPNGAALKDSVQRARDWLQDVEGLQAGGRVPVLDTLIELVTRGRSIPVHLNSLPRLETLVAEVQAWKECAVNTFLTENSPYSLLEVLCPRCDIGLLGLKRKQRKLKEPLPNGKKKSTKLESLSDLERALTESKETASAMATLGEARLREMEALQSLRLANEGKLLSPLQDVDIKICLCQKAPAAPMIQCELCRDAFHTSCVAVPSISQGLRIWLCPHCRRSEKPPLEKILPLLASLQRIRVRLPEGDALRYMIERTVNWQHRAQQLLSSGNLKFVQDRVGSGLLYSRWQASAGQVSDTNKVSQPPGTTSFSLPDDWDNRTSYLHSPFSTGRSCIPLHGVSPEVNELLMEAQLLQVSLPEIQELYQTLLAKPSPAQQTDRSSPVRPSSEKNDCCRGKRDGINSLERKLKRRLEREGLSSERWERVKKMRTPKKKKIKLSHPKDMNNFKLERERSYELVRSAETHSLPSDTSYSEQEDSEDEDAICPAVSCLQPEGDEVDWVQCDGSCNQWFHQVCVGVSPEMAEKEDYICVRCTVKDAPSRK

`CC(=O)N1c2ccccc2[C@@](C#N)(c2ccccc2)[C@@H]1c1cncc(CCCCCCCN2CCCC2)c1` [(S,S)-6] showed an inhibition at 100 µM (JMJD1A (KDM3A)) of 35.4%, an IC50 (JMJD1A (KDM3A); read-out: KDM3A pIC50 (converted)) of over 100 µM and an IC50 (JARID1B (KDM5B)) of 13.1 µM.
